In patent US10101319B2, “Methods of detecting plasmodium infection” (Commonwealth Scientific and Industrial Research Organisation, priority 2013, dated 2018):

Columns and labels:
P. falciparum = details: 13 evaluable volunteers; cited from earlier work
Plasmodium falciparum = test: GC-MS analysis of exhaled breath volatiles and PCR parasitaemia, Cohort 1, induced blood stage malaria, treated with OZ439; assay type: in vivo, human; details: Cohort 1 compared with Cohort 2 (slower acting bisquinoline 4-aminoquinoline)
Experimental: This research was a controlled study using a blood stage Plasmodium falciparum (BSPC) inoculum challenge to characterize the efficacy of two anti-malaria drugs against early Plasmodium falciparum blood stage infection. Investigation of breath volatiles was an “add-on” to the anti-malarial efficacy studies. The study was conducted in two cohorts (n=8 for Cohort 1 and n=7 for Cohort 2) using different anti-malaria drugs. The anti-malaria drug investigated in Cohort 1 was OZ439 and the drug used in Cohort 2 was Piperaquine. OZ439, as an artemisin derivative, is rapidly absorbed, acts rapidly and is short-lived in the body. Piperaquine is absorbed slowly and has a long half-life in the body. […]
Each participant in the cohort was inoculated on Day 0 with ˜1,800 viable Plasmodium falciparum-infected human erythrocytes administered intravenously. On an outpatient basis, participants were monitored daily (AM) or morning (AM) and evening (PM), from day 3 until PCR positive for presence of malaria parasites, for adverse events and the unexpected early onset of symptoms, signs or parasitological evidence of malaria.
On the day designated for commencement of treatment, as determined by qPCR results (usually Day7/8 AM), participants were admitted to the study unit and confined for safety monitoring and anti-malaria drug administration with parasite load and drug levels being monitored. […]

| Molecule | mean parasite reduction ratio (P. falciparum) | Decline in parasitaemia and thioether levels after drug (Plasmodium falciparum) |
| --- | --- | --- |
| artemether-lumefantrine | 759 | – |
| c1cc([C@H]2CC[C@]3(CC2)OO[C@]2(O3)C3CC4CC(C3)CC2C4)ccc1OCCN1CCOCC1 [OZ439] | – | faster decline in parasitaemia and thioether levels |
| atovaquone-proguanil | 17 | – |
